Source: patent publication US4355179A, “Radioactive nuclide labeled propiophenone compounds” (Burroughs Wellcome Co., priority 1980, dated 1982)

Assays:
[1] = test system: antisera raised by a bupropion variant-carrier material conjugate; experiment: Competition with radiolabeled bupropion or radiolabeled competitor for binding to antisera; conditions: against radiolabeled bupropion or radiolabeled competitor
[2] = test system: anti-compound 1 sera; experiment: RIA of bupropion using 125I-labeled competitor with anti-compound 1 sera; type: binding; conditions: compound 6 with anti-compound 1 sera, compared with the other RIA's
Experimental: Samples of six standard solutions of bupropion in blank plasma having concentrations of 0.39 to 50 ng/ml) are pipetted (0.1 ml each) in duplicate into 12×75 mm plastic tubes. Duplicate non-specific binding (no antibody) and maximum binding tubes (no unlabeled bupropion) receive 0.1 ml blank plasma. Spiked plasma controls at several concentrations of (e.g., 1.0, 10.0, and 100 ng/ml) and plasma samples for assay (diluted into the standard range with blank plasma if necessary) are assayed in duplicate. After being placed in an ice bath, all tubes receive (in order) 0.2 ml ^3 H bupropion (416 pg. containing approximately 10^4 cpm) and 0.7 ml anti-bupropion serum (raised to a ring-functionalized immunogen according to the present invention) (at pre-determined dilutions such that approximately 40% of the ^3 H bupropion added is bound), both in assay buffer (0.05 M phosphate-bufferedisotonic saline, containing 0.01 M EDTA and 0.1% gelatin, pH 7.0). […] The supernatants, containing antibody-bound ^3 H bupropion are carefully decanted into liquid scintillation cocktail for quantitation of ^3 H. After counts (minus average non-specific binding cpm) are expressed as percentages of average maximum binding cpm, bupropion concentrations in plasma samples and spiked controls are read from a standard curve (log concentration vs percent average maximum binding). […]

[3] = test system: anti-compound 2 sera, anti-compound 3 sera; experiment: RIA of bupropion using 125I-labeled competitors with anti-compound 2 sera and anti-compound 3 sera; type: binding; conditions: with anti-compound 2 or anti-compound 3 sera
Experimental: Samples of six standard solutions of bupropion in blank plasma having concentrations of 0.39 to 50 ng/ml) are pipetted (0.1 ml each) in duplicate into 12×75 mm plastic tubes. Duplicate non-specific binding (no antibody) and maximum binding tubes (no unlabeled bupropion) receive 0.1 ml blank plasma. Spiked plasma controls at several concentrations of (e.g., 1.0, 10.0, and 100 ng/ml) and plasma samples for assay (diluted into the standard range with blank plasma if necessary) are assayed in duplicate. After being placed in an ice bath, all tubes receive (in order) 0.2 ml ^3 H bupropion (416 pg. containing approximately 10^4 cpm) and 0.7 ml anti-bupropion serum (raised to a ring-functionalized immunogen according to the present invention) (at pre-determined dilutions such that approximately 40% of the ^3 H bupropion added is bound), both in assay buffer (0.05 M phosphate-bufferedisotonic saline, containing 0.01 M EDTA and 0.1% gelatin, pH 7.0). Non-specific binding tubes receive 0.7 ml assay buffer.) Following incubation either at 25° C. for 2 hours or overnight at 4° C., bound and free ^3 H bupropion are separated by incubation for 10 min at 0° C. with 0.5 ml ice-cold dextran-coated charcoal solution (0.25% dextran, 5 mg/ml charcoal, in assay buffer) followed by centrifugation for 10 minutes at 4° C. […] The supernatants, containing antibody-bound ^3 H bupropion are carefully decanted into liquid scintillation cocktail for quantitation of ^3 H. After counts (minus average non-specific binding cpm) are expressed as percentages of average maximum binding cpm, bupropion concentrations in plasma samples and spiked controls are read from a standard curve (log concentration vs percent average maximum binding).
RIA's have been run according to the method of Example X utilizing ^125 I labeled bupropion competitors of the present invention in conjunction with antisera obtained following immunization with immunogens of the present invention. […] Following the ethanol precipitation of antibody-bound ^125 I-bupropion competitor at equilibrium, ^125 I in the protein pellets was quantified.

CC(NC(C)(C)C)C(=O)c1cccc(Cl)c1 (racemic) [bupropion, (±)-2-tert-butylamino-3'-chloropropiophenone]
competition for binding to antisera [1]: successfully compete

CC(NC(C)(C)C)C(=NOCC(=O)NCCc1ccc(O)c([125I])c1)c1cccc(Cl)c1 (stereo not drawn) [Compound 6, α-t-Butylamino-3-chloropropiophenone-carboxymethyloxime-^125 I-tyramine amide]
RIA sensitivity [2]: least sensitive

CC(NC(C)(C)C)C(=O)c1ccc(OCC(=O)NCCc2ccc(O)c([125I])c2)c(Cl)c1 (stereo not drawn) [Compound 7, α-t-Butylamino-3-chloro-4-carbomethoxypropiophenone-^125 I-tyramine amide]
RIA sensitivity relative to the compound 10 (3H bupropion) assay system [3]: approximately equal

CC(NC(C)(C)C)C(=O)c1ccc(CCCOC(=O)CCC(=O)NCCc2ccc(O)c([125I])c2)c(Cl)c1 (stereo not drawn) [Compound 8, α-t-butylamino-3-chloro-4-γ-hydroxypropylpropiophenonehemisuccinate-^125 I-tyramine amide]
RIA sensitivity relative to the compound 10 (3H bupropion) assay system [3]: approximately equal

CC(NC(C)(C)C)C(=O)c1ccc(O)c([125I])c1 (stereo not drawn) [Compound 9, ^125 I-α-t-Butylamino-3-iodo-4-hydroxypropiophenone]
RIA sensitivity relative to the compound 10 (3H bupropion) assay system [3]: approximately ten times more sensitive
